Measured values as given in patent US20260345619A1 (Principia Biopharma Inc., priority 2023, published 2026).

Assay: Pre-bronchodilator FEV1 and percent predicted FEV1 by spirometry, change from baseline
Format: in vivo, human
Conditions: 400 mg BID, Week 12
Description: Spirometry is a standard test to measure patients' lung function.
The primary endpoint was the proportion of patients with LOAC. The key secondary endpoint for the study was change in pre-bronchodilator FEV1 from baseline at EOT.
Reversibility is defined as an increase of the absolute FEV1 after administration of bronchodilator and is measured by spirometry as postbronchodilator increase in FEV1 in percent of the prebronchodilator FEV1. After spirometry for measuring prebronchodilator FEV1, participants were to receive 2-4 puffs of albuterol/salbutamol or levalbuterol/levosalbutamol from a primed MDI. The postbronchodilator spirometry may have been repeated several times within 30 minutes after administration of bronchodilator. Alternatively, and only if it was consistent with usual office practice (to be documented), reversibility may have been performed using inhalation of nebulized albuterol/salbutamol or levalbuterol/levosalbutamol.
Secondary endpoints included pre-bronchodilator FEV1 change from baseline at EOT, ACQ-5 score change from baseline, and AQLQ score change from baseline. Other secondary and exploratory endpoints are described in Table 2.

[1] = >2 exacerbations within 2 years
[2] = baseline FEV1 <2.022 L (median)
[3] = baseline FEV1 reversibility <12%
[4] = baseline FEV1 reversibility ≥12%
[5] = baseline FEV1 ≥2.022 L (median)
[6] = baseline IgE <210.8 IU/mL (median)
[7] = baseline IgE ≥210.8 IU/mL (median)
[8] = baseline blood eosinophils <0.15 10^9/L
[9] = baseline blood eosinophils <0.3 10^9/L
[10] = baseline blood eosinophils ≥0.15 10^9/L
[11] = baseline blood eosinophils ≥0.3 10^9/L
[12] = baseline percent predicted FEV1 <68% (median)
[13] = baseline percent predicted FEV1 ≥68% (median)

## CC(C)(C=C(C#N)C(=O)N1CCC[C@@H](n2nc(-c3ccc(Oc4ccccc4)cc3F)c3c(N)ncnc32)C1)N1CCN(C2COC2)CC1 (mixture of isomers) [rilzabrutinib, (R)-2-[3-[4-amino-3-(2-fluoro-4-phenoxy-phenyl)pyrazolo[3,4-d]pyrimidin-1-yl]piperidine-1-carbonyl]-4-methyl-4-[4-(oxetan-3-yl)piperazin-1-yl]pent-2-enenitrile]
1 exacerbation within 2 years
  Pre-bronchodilator FEV1 change from baseline, LS Mean: -0.08 L
  Pre-bronchodilator FEV1 change from baseline, LS Mean Diff vs. placebo: -0.05 L
  Pre-bronchodilator FEV1 change from baseline, Mean: 0.05 L
2 exacerbations within 2 years
  Pre-bronchodilator FEV1 change from baseline, LS Mean: -0.01 L
  Pre-bronchodilator FEV1 change from baseline, LS Mean Diff vs. placebo: 0.10 L
  Pre-bronchodilator FEV1 change from baseline, Mean: -0.06 L
[1]
  Pre-bronchodilator FEV1 change from baseline, LS Mean: -0.36 L
  Pre-bronchodilator FEV1 change from baseline, LS Mean Diff vs. placebo: -0.16 L
  Pre-bronchodilator FEV1 change from baseline, Mean: -0.15 L
APAC
  Pre-bronchodilator FEV1 change from baseline, Mean: -0.09 L
Eastern Europe
  Pre-bronchodilator FEV1 change from baseline, Mean: -0.21 L
Latin America
  Pre-bronchodilator FEV1 change from baseline, LS Mean: -0.07 L
  Pre-bronchodilator FEV1 change from baseline, LS Mean Diff vs. placebo: -0.01 L
  Pre-bronchodilator FEV1 change from baseline, Mean: -0.05 L
Western Countries
  Pre-bronchodilator FEV1 change from baseline, Mean: 0.24 L
Age <45 years
  Pre-bronchodilator FEV1 change from baseline, LS Mean: -0.13 L
  Pre-bronchodilator FEV1 change from baseline, LS Mean Diff vs. placebo: -0.13 L
  Pre-bronchodilator FEV1 change from baseline, Mean: -0.05 L
Age ≥45 years
  Pre-bronchodilator FEV1 change from baseline, LS Mean: -0.14 L
  Pre-bronchodilator FEV1 change from baseline, LS Mean Diff vs. placebo: 0.02 L
  Pre-bronchodilator FEV1 change from baseline, Mean: -0.03 L
Asthma onset age <12 years
  Pre-bronchodilator FEV1 change from baseline, LS Mean: 0.12 L
  Pre-bronchodilator FEV1 change from baseline, LS Mean Diff vs. placebo: 0.18 L
  Pre-bronchodilator FEV1 change from baseline, Mean: 0.00 L
Asthma onset age <18 years
  Pre-bronchodilator FEV1 change from baseline, LS Mean: -0.00 L
  Pre-bronchodilator FEV1 change from baseline, LS Mean Diff vs. placebo: 0.08 L
  Pre-bronchodilator FEV1 change from baseline, Mean: 0.04 L
Asthma onset age ≥12-<18 years
  Pre-bronchodilator FEV1 change from baseline, Mean: 0.12 L
Asthma onset age ≥18-<40 years
  Pre-bronchodilator FEV1 change from baseline, LS Mean: -0.14 L
  Pre-bronchodilator FEV1 change from baseline, LS Mean Diff vs. placebo: 0.00 L
  Pre-bronchodilator FEV1 change from baseline, Mean: -0.08 L
Asthma onset age ≥18 years
  Pre-bronchodilator FEV1 change from baseline, LS Mean: -0.17 L
  Pre-bronchodilator FEV1 change from baseline, LS Mean Diff vs. placebo: -0.03 L
  Pre-bronchodilator FEV1 change from baseline, Mean: -0.11 L
Asthma onset age ≥40 years
  Pre-bronchodilator FEV1 change from baseline, LS Mean: 0.00 L
  Pre-bronchodilator FEV1 change from baseline, LS Mean Diff vs. placebo: 0.07 L
  Pre-bronchodilator FEV1 change from baseline, Mean: -0.31 L
Atopic medical conditions: No
  Pre-bronchodilator FEV1 change from baseline, LS Mean: -0.15 L
  Pre-bronchodilator FEV1 change from baseline, LS Mean Diff vs. placebo: 0.10 L
  Pre-bronchodilator FEV1 change from baseline, Mean: -0.16 L
Atopic medical conditions: Yes
  Pre-bronchodilator FEV1 change from baseline, LS Mean: 0.02 L
  Pre-bronchodilator FEV1 change from baseline, LS Mean Diff vs. placebo: -0.03 L
  Pre-bronchodilator FEV1 change from baseline, Mean: 0.03 L
Background ICS/LABA dose High
  Pre-bronchodilator FEV1 change from baseline, LS Mean: -0.11 L
  Pre-bronchodilator FEV1 change from baseline, LS Mean Diff vs. placebo: 0.02 L
  Pre-bronchodilator FEV1 change from baseline, Mean: -0.05 L
Background ICS/LABA dose Medium
  Pre-bronchodilator FEV1 change from baseline, Mean: 0.04 L
Baseline ACQ-5 >2
  Pre-bronchodilator FEV1 change from baseline, LS Mean: -0.12 L
  Pre-bronchodilator FEV1 change from baseline, LS Mean Diff vs. placebo: -0.04 L
  Pre-bronchodilator FEV1 change from baseline, Mean: -0.09 L
Baseline ACQ-5 ≤2
  Pre-bronchodilator FEV1 change from baseline, LS Mean: -0.12 L
  Pre-bronchodilator FEV1 change from baseline, LS Mean Diff vs. placebo: 0.04 L
  Pre-bronchodilator FEV1 change from baseline, Mean: 0.00 L
Baseline BMI <25 kg/m^2
  Pre-bronchodilator FEV1 change from baseline, LS Mean: -0.09 L
  Pre-bronchodilator FEV1 change from baseline, LS Mean Diff vs. placebo: 0.15 L
  Pre-bronchodilator FEV1 change from baseline, Mean: 0.02 L
Baseline BMI ≥25-<30 kg/m^2
  Pre-bronchodilator FEV1 change from baseline, LS Mean: -0.06 L
  Pre-bronchodilator FEV1 change from baseline, LS Mean Diff vs. placebo: 0.06 L
  Pre-bronchodilator FEV1 change from baseline, Mean: -0.00 L
Baseline BMI ≥30 kg/m^2
  Pre-bronchodilator FEV1 change from baseline, LS Mean: -0.04 L
  Pre-bronchodilator FEV1 change from baseline, LS Mean Diff vs. placebo: -0.13 L
  Pre-bronchodilator FEV1 change from baseline, Mean: -0.18 L
[2]
  Pre-bronchodilator FEV1 change from baseline, LS Mean: -0.08 L
  Pre-bronchodilator FEV1 change from baseline, LS Mean Diff vs. placebo: 0.04 L
  Pre-bronchodilator FEV1 change from baseline, Mean: -0.06 L
[3]
  Pre-bronchodilator FEV1 change from baseline, LS Mean: -0.23 L
  Pre-bronchodilator FEV1 change from baseline, LS Mean Diff vs. placebo: -0.00 L
  Pre-bronchodilator FEV1 change from baseline, Mean: -0.24 L
[4]
  Pre-bronchodilator FEV1 change from baseline, LS Mean: 0.07 L
  Pre-bronchodilator FEV1 change from baseline, LS Mean Diff vs. placebo: -0.05 L
  Pre-bronchodilator FEV1 change from baseline, Mean: 0.08 L
[5]
  Pre-bronchodilator FEV1 change from baseline, LS Mean: -0.09 L
  Pre-bronchodilator FEV1 change from baseline, LS Mean Diff vs. placebo: -0.03 L
  Pre-bronchodilator FEV1 change from baseline, Mean: -0.02 L
Baseline FeNO <25 ppb
  Pre-bronchodilator FEV1 change from baseline, LS Mean: -0.16 L
  Pre-bronchodilator FEV1 change from baseline, LS Mean Diff vs. placebo: 0.03 L
  Pre-bronchodilator FEV1 change from baseline, Mean: -0.12 L
Baseline FeNO <35 ppb
  Pre-bronchodilator FEV1 change from baseline, LS Mean: -0.19 L
  Pre-bronchodilator FEV1 change from baseline, LS Mean Diff vs. placebo: -0.04 L
  Pre-bronchodilator FEV1 change from baseline, Mean: -0.10 L
Baseline FeNO ≥25 ppb
  Pre-bronchodilator FEV1 change from baseline, LS Mean: -0.00 L
  Pre-bronchodilator FEV1 change from baseline, LS Mean Diff vs. placebo: -0.01 L
  Pre-bronchodilator FEV1 change from baseline, Mean: 0.01 L
Baseline FeNO ≥35 ppb
  Pre-bronchodilator FEV1 change from baseline, LS Mean: 0.05 L
  Pre-bronchodilator FEV1 change from baseline, LS Mean Diff vs. placebo: 0.06 L
  Pre-bronchodilator FEV1 change from baseline, Mean: 0.08 L
Baseline IgE <100 IU/mL
  Pre-bronchodilator FEV1 change from baseline, LS Mean: -0.11 L
  Pre-bronchodilator FEV1 change from baseline, LS Mean Diff vs. placebo: -0.03 L
  Pre-bronchodilator FEV1 change from baseline, Mean: -0.09 L
[6]
  Pre-bronchodilator FEV1 change from baseline, LS Mean: -0.11 L
  Pre-bronchodilator FEV1 change from baseline, LS Mean Diff vs. placebo: 0.01 L
  Pre-bronchodilator FEV1 change from baseline, Mean: -0.02 L
Baseline IgE ≥100 IU/mL
  Pre-bronchodilator FEV1 change from baseline, LS Mean: -0.04 L
  Pre-bronchodilator FEV1 change from baseline, LS Mean Diff vs. placebo: 0.02 L
  Pre-bronchodilator FEV1 change from baseline, Mean: -0.02 L
[7]
  Pre-bronchodilator FEV1 change from baseline, LS Mean: -0.02 L
  Pre-bronchodilator FEV1 change from baseline, LS Mean Diff vs. placebo: 0.01 L
  Pre-bronchodilator FEV1 change from baseline, Mean: -0.08 L
[8]
  Pre-bronchodilator FEV1 change from baseline, LS Mean: -0.08 L
  Pre-bronchodilator FEV1 change from baseline, LS Mean Diff vs. placebo: -0.04 L
  Pre-bronchodilator FEV1 change from baseline, Mean: -0.10 L
[9]
  Pre-bronchodilator FEV1 change from baseline, LS Mean: -0.15 L
  Pre-bronchodilator FEV1 change from baseline, LS Mean Diff vs. placebo: -0.07 L
  Pre-bronchodilator FEV1 change from baseline, Mean: -0.10 L
[10]
  Pre-bronchodilator FEV1 change from baseline, LS Mean: -0.03 L
  Pre-bronchodilator FEV1 change from baseline, LS Mean Diff vs. placebo: 0.07 L
  Pre-bronchodilator FEV1 change from baseline, Mean: -0.01 L
[11]
  Pre-bronchodilator FEV1 change from baseline, LS Mean Diff vs. placebo: 0.07 L
  Pre-bronchodilator FEV1 change from baseline, Mean: 0.04 L
[12]
  Pre-bronchodilator FEV1 change from baseline, LS Mean: -0.21 L
  Pre-bronchodilator FEV1 change from baseline, LS Mean Diff vs. placebo: 0.03 L
  Pre-bronchodilator FEV1 change from baseline, Mean: -0.05 L
[13]
  Pre-bronchodilator FEV1 change from baseline, LS Mean: -0.07 L
  Pre-bronchodilator FEV1 change from baseline, LS Mean Diff vs. placebo: -0.01 L
  Pre-bronchodilator FEV1 change from baseline, Mean: -0.02 L
Baseline weight <60 kg
  Pre-bronchodilator FEV1 change from baseline, Mean: -0.02 L
Baseline weight ≥60-<90 kg
  Pre-bronchodilator FEV1 change from baseline, LS Mean: -0.09 L
  Pre-bronchodilator FEV1 change from baseline, LS Mean Diff vs. placebo: 0.03 L
  Pre-bronchodilator FEV1 change from baseline, Mean: -0.01 L
